Measured values from patent US20190336537A1, “GENERATING ATRIAL AND VENTRICULAR CARDIOMYOCYTE LINEAGES FROM HUMAN PLURIPOTENT STEM CELLS” (UNIVERSITY HEALTH NETWORK, priority 2016, published 2019).

Legend:
[1] = tested on: HES3 NKX2-5:GFP hESC-derived day 20 EB populations; test: Flow cytometric and immunostaining analyses of day 20 EB populations (CTNT, MLC2V, NKX2-5, COUPTFII); type: cell-based, human; design: frequency of NKX2-5+SIRPa+ cells in day 20 populations: dose or concentration left out as unconfirmed
Procedure: (§1) For cardiac differentiation, we used a modified version of our embryoid body (EB)-based protocol (Kattman et al., 2011). hPSC populations at 80%-90% confluence were dissociated into single cells (TrypLE, ThermoFisher) and re-aggregated to form EBs in StemPro-34 media (ThermoFisher) containing penicillin/streptomycin (1%, ThermoFisher), L-glutamine (2 mM, ThermoFisher), trans-ferrin (150 μg/ml, ROCHE), ascorbic acid (50 μg/ml, Sigma), and monothioglycerol (50 μg/ml, Sigma), ROCK inhibitor Y-27632 (10 μM, TOCRIS) and rhBMP4 (1 ng/ml, R&D) for 18 h on an orbital shaker. At day 1, the EBs were transferred to mesoderm induction media consisting of StemPro-34 with above supplements (-ROCK inhibitor Y-27632) and rhBMP4, rhActivinA (R&D) and rhbFGF (5 ng/ml, R&D) at the indicated concentrations. At day 3, the EBs were harvested, washed with IMDM and transferred to cardiac mesoderm specification media consisting of StemPro-34, the Wnt inhibitor IWP2 (1 μM, TOCRIS) and rhVEGF (10 ng/mL, R&D). At day 5, the EBs were transferred to Stem Pro-34 with rhVEGF (5 ng/ml) for another 7 days and then to Stem Pro-34 media without additional cytokines for further 8 days. At day 20, HES3-NKX2-5gfp/w-derived cardiomyocytes were analyzed and isolated based on the expression of NKX2-5:GFP and SIRPa and a lack of CD90. Cardiomyocytes generated from non-transgenic hPSC lines were analyzed and isolated as SIRPa+CD90− populations. Media was changed every 3 days. Cultures were incubated in a low oxygen environment (5% CO2, 5% O2, 90% N2) for first 12 days and a normoxic environment (5% CO2) for the following 8 days in total of 20 days. The EBs were cultured in ultra-low attachment 6-well dishes (Corning) throughout the differentiation for maintaining suspension cultures.
Day 2-6 EBs were dissociated with TrypLE for 2-4 min at room temperature (RT). Day 20 EBs were dissociated by incubation in Collagenase type 2 (0.5 mg/ml, Worthington) in HANKs buffer overnight at RT followed by TrypLE treatment as described above. The following antibodies were used for staining: anti-PDGFRa-PE (R&D Systems, 3:50), anti-CD235a-APC (BD PharMingen, 1:100), antiSIRPa-PeCy7 (Biolegend, 1:1000), anti-CD90-APC (BD PharMingen, 1:1000), anticardiac isoform of CTNT (ThermoFisher Scientific, 1:2000), or anti-myosin light chain 2 (Abcam, 1:1000). For unconjugated primary antibodies, the following secondary antibodies were used for detection: goat anti-mouse IgG-APC (BD Pharmigen, 1:250), or donkey anti-rabbit IgG-PE (Jackson ImmunoResearch, 1:250). Detailed antibody information is described in Table 2.
For cell-surface marker analyses, cells were stained for 30 min at 4 degrees C. in FACS buffer consisting of PBS with 5% fetal calf serum (FCS) (Wisent) and 0.02% sodium azide. For intracellular staining, cells were fixed for 15 min at 4 degrees C. with 4% PFA in PBS followed by permeabilization using 90% methanol for 20 min at 4 degrees C. Cells were washed with PBS containing 0.5% BSA (Sigma) and stained with unconjugated primary antibodies in FACS buffer overnight at 4 degrees C. Stained cells were washed with PBS with 0.5% BSA and stained with secondary antibodies in FACS buffer for 1 h at 4 degrees C.
Stained cells were analyzed using the LSR II Flow cytometer (BD). For cell sorting, stained cells were kept in IMDM with 0.5% FCS and sorted using Influx (BD), FACSAriall (BD), MoFlo-XDP (BD) and FACSAria Fusion (BD) at the Sickids/UHN flow cytometry facility. Data were analyzed using FlowJo software (Tree Star).
Day 20 EBs were dissociated as described above and the cells plated onto 12 mm cover glasses (VWR) pre-coated with matrigel (25% v/v, BD). Cells were cultured for 3-5 days to enable the formation of adherent cell monolayers. Cells were fixed with
4% PFA in PBS for 10 min at room temperature and permeabilized with PBS containing 0.3% TritonX, 200 mM Glycine (Sigma) for 20 min at RT. Cells were blocked with PBS containing 10% FCS, 0.1% TritonX, and 2% BSA. […]

[2] = tested on: MSC-iPS1 induced pluripotent stem cell line derived EBs; test: ROH/RA response of MSC-iPS1-derived EBs (day 20 flow cytometry and qRT-PCR); type: cell-based, human; conditions: treated days 3 to 5
Description: To determine if the approach for optimizing atrial and ventricular differentiation based on ALDH activity and CD235a expression is broadly applicable, we next used it to generate these cardiomyocyte populations from the HES2 human embryonic stem cell and the MSC-iPS1 induced pluripotent stem cell lines. Titration studies identified 5B/2A and 5B/6A as optimal for atrial and ventricular inductions, respectively, for HES2 cells and 4B/4A as optimal for ventricular induction for MSCiPSC1 cells (FIGS. 7A, 7B, 7E, and 7F; Mendeley http://dx.doi.org/10.17632/7z7d5v2c3w.1). Optimization of atrial induction from the MSC-iPSC1 cells was more challenging, as all cytokine combinations promoted the development of a substantial CD235a+ population. One interpretation of these patterns is that the MSC-iPS1 cells have a high level of endogenous Nodal/Activin A signaling, resulting in the development of some CD235a+ cells under all conditions. To test this, we added the Nodal/Activin A/transforming growth factor beta (TGF-beta) inhibitor SB-431542 (SB) from days 3 to 5 to cells induced with 4B/1A.
as §1, with “The EBs were cultured in ultra-low attachment 6-well dishes (Corning) throughout the differentiation for maintaining suspension cultures.” left out

[3] = day 3 RA-treated mesoderm versus non-treated control

Compound: CC1=C(/C=C/C(C)=C/C=C/C(C)=C/C(=O)O)C(C)(C)CCC1 [RA, all trans retinoic acid]
- frequency of NKX2-5+SIRPa+ cells in day 20 populations ([1]; RA): dramatic reduction
- proportion of NKX2-5-GFP− cells ([1]; RA treatment days 3-5, day 20): did not influence
- frequency of COUPTFII+ cells [1, 3]: much higher frequency
- proportion of MLC2V+ cells [1, 3]: dramatic reduction
- response of ALDH+ mesoderm (atrial expression profile) ([2]; MSC-iPS1, 4B/1A+SB induced): responded to both ROH and RA
- response of CD235a+ mesoderm (MLC2V content, MYL2, IRX4, KCNJ3, NR2F2) ([2]; MSC-iPS1, 4B/4A induced): both responded to RA
